Reference: ChEMBL document CHEMBL5523703, “Modulators for palmitoylation of proteins and small molecules” (Eur J Med Chem, 2024)
Blank lines part the entries; values can stand above or below the molecule they belong to.

Assays:
[1] = target: Serine palmitoyltransferase small subunit B (Homo sapiens, UniProt Q8NFR3); assay: Inhibition of SPTSSB (unknown origin) expressed in HEK293T cells; type: cell-based
[2] = target: Transcriptional enhancer factor TEF-1 (Homo sapiens, UniProt P28347); assay: Inhibition of N-terminal His-tagged human TEAD1 expressed in Escherichia coli BL21 (DE3) (209 to 424 residues) by affinity chromatography analysis
Transcriptional enhancer factor TEF-1, sequence (P28347 whole entry, the tested form may be a part): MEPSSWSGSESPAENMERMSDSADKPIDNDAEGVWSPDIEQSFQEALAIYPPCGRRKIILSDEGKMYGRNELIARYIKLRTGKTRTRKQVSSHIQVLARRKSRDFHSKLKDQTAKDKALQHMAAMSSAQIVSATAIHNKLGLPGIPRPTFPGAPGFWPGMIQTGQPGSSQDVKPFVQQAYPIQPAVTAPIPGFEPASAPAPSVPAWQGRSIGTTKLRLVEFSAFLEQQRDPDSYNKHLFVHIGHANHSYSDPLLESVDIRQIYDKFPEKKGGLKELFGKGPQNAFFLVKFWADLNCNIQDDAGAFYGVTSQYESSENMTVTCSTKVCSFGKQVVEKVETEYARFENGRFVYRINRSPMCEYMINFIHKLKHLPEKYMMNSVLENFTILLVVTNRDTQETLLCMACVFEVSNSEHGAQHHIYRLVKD

LN-18 = assay: Antitumor activity against human LN-18 cells assessed as reduction in cell growth incubated for 72 hrs in presence of sirtuins inhibitor by crystal violet staining based analysis; type: functional; details: LN-18, 72 h
NCI-H226 [3] = assay: Antitumor activity against human NCI-H226 cells xenografted in CDX mouse model assessed as reduction in tumor growth at 30 mg/kg relative to control; type: functional; design: scale not given: the % may be the effect or the level left
NCI-H226 [4] = assay: Antitumor activity against human NCI-H226 cells xenografted in CDX mouse model assessed as reduction in tumor growth at 75 mg/kg relative to control; type: functional; design: scale not given: the % may be the effect or the level left
[5] = Inhibition of N-terminal 6His-tagged human TEAD1 YAP-binding domain (219 to 435 residues) expressed in Escherichia coli BL21 (DE3)
[6] = target: T1, Protein-cysteine N-palmitoyltransferase HHAT (Homo sapiens, UniProt Q5VTY9); assay: Binding affinity to His-tagged HHAT (unknown origin) transfected in HEK293FT cells assessed as inhibition constant; type: cell-based
T1 sequence (Q5VTY9 whole entry): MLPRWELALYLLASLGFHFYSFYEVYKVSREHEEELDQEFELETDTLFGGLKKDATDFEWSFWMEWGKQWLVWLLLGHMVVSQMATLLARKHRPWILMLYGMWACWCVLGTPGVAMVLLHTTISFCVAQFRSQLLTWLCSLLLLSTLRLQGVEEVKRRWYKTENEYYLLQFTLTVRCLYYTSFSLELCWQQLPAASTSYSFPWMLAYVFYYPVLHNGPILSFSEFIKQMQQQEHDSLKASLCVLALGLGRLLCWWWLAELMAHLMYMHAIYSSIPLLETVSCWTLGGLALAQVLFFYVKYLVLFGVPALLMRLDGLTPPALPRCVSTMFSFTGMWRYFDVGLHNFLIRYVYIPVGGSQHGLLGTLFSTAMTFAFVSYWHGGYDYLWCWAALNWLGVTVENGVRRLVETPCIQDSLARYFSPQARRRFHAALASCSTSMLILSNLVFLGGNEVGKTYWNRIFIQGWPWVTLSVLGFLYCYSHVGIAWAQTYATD

[7] = target: T1, Protein-cysteine N-palmitoyltransferase HHAT; assay: Inhibition of His-tagged HHAT (unknown origin) transfected in HEK293FT cells; type: cell-based
MCF7 = assay: Antiproliferative activity against human MCF7 cells assessed as reduction in cell growth measured after 72 hrs by MTT assay; type: functional, cell-based; details: MCF7, 72 h
Homo sapiens = species on record: Homo sapiens; assay: Inhibition of ZDHHC (unknown origin) at 20 uM relative to control
[8] = target: T2, Carnitine O-palmitoyltransferase 1, muscle isoform (Homo sapiens, UniProt Q92523); assay: Inhibition of CPT1B (unknown origin)
T2 sequence (Q92523 whole entry): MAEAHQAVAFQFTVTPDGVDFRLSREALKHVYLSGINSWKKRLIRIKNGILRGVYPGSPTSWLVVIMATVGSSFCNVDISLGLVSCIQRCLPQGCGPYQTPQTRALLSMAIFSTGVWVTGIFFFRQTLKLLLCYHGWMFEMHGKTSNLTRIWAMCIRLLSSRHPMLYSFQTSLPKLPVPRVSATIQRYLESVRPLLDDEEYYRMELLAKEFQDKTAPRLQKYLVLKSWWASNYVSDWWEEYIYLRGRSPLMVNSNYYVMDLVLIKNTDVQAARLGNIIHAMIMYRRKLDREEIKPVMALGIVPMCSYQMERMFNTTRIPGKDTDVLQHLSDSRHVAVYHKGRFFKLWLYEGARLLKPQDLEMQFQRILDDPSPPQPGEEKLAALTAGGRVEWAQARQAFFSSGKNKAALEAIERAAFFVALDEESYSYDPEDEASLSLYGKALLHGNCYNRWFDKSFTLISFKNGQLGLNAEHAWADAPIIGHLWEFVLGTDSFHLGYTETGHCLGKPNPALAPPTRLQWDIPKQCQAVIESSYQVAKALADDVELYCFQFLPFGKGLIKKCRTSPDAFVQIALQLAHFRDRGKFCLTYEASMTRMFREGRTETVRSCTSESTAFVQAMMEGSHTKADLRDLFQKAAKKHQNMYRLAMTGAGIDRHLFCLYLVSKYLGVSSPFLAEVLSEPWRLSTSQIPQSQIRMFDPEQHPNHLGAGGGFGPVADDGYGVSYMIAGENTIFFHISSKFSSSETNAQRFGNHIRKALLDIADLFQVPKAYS

[9] = target: T3, Carnitine O-palmitoyltransferase 1, liver isoform (Homo sapiens, UniProt P50416); assay: Inhibition of CPT1A (unknown origin)
T3 sequence (P50416 whole entry): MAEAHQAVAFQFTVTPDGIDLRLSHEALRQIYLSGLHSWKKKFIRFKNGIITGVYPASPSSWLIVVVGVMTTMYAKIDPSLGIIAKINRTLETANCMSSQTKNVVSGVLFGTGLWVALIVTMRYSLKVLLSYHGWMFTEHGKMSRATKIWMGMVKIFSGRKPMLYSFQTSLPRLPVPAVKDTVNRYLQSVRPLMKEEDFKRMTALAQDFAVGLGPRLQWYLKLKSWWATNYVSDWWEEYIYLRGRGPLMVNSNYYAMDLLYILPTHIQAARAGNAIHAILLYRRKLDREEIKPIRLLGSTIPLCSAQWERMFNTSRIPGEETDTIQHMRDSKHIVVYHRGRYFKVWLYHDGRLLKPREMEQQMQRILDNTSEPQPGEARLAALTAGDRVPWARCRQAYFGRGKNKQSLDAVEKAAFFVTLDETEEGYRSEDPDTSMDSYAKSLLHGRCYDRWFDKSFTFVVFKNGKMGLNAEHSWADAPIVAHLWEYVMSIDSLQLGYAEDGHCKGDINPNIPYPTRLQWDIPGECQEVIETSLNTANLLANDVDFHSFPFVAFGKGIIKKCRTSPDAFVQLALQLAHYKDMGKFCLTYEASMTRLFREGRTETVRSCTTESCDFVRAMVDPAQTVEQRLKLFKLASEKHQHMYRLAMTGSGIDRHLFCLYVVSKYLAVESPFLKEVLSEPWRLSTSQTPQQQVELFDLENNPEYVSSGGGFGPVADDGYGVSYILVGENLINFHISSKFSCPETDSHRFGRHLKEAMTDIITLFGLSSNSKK

[10] = target: T4, Carnitine O-palmitoyltransferase 1, liver isoform (Rattus norvegicus, UniProt P32198); assay: Inhibition of rat hepatocytes CPT1A; type: cell-based, Hepatocyte
T4 sequence (P32198 whole entry): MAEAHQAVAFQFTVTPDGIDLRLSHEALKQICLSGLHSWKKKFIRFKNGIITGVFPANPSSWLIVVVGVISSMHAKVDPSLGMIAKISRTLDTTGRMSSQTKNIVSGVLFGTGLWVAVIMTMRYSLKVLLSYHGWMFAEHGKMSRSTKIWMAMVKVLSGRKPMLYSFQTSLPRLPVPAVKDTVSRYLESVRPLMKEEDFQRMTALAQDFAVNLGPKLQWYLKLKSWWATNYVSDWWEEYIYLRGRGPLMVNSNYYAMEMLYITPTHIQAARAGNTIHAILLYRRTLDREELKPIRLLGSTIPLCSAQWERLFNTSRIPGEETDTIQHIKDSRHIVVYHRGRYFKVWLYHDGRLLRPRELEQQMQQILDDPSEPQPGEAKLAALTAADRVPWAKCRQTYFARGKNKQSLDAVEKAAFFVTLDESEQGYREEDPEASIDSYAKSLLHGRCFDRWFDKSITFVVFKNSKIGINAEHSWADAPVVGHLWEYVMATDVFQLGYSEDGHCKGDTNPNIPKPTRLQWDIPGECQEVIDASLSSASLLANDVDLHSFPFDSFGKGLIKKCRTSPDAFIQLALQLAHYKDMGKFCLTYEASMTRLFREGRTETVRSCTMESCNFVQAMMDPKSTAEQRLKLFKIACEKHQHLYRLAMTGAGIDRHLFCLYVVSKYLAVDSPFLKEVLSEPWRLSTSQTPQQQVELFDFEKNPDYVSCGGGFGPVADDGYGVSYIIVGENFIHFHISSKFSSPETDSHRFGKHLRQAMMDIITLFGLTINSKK

[11] = target: T2, Carnitine O-palmitoyltransferase 1, muscle isoform; assay: Inhibition of CPT1B (unknown origin) in KB cells; type: cell-based
[12] = target: T4, Carnitine O-palmitoyltransferase 1, liver isoform; assay: Binding affinity to rat liver mitochondria CPT1 assessed as inhibition constant incubated for 3 to 6 mins by Liquid scintillation counting method
[13] = target: Palmitoyltransferase ZDHHC9 (Homo sapiens, UniProt Q9Y397); assay: Binding affinity to ZDHHC9 (unknown origin) assessed as inhibition constant
Palmitoyltransferase ZDHHC9, sequence (Q9Y397 whole entry): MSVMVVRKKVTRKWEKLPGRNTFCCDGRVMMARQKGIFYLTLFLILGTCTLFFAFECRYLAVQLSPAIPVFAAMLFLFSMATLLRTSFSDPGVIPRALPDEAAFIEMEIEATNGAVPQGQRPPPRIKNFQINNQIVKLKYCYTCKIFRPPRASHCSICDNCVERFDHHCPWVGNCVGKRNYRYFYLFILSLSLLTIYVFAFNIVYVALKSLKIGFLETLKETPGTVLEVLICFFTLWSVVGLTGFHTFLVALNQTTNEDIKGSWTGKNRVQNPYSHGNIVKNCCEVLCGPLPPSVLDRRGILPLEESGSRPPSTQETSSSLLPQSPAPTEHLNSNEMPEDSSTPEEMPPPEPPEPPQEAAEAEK

[14] = target: Carnitine O-palmitoyltransferase 2, mitochondrial (Rattus norvegicus, UniProt P18886); assay: Inhibition of rat CPT2
Carnitine O-palmitoyltransferase 2, mitochondrial, sequence (P18886 whole entry): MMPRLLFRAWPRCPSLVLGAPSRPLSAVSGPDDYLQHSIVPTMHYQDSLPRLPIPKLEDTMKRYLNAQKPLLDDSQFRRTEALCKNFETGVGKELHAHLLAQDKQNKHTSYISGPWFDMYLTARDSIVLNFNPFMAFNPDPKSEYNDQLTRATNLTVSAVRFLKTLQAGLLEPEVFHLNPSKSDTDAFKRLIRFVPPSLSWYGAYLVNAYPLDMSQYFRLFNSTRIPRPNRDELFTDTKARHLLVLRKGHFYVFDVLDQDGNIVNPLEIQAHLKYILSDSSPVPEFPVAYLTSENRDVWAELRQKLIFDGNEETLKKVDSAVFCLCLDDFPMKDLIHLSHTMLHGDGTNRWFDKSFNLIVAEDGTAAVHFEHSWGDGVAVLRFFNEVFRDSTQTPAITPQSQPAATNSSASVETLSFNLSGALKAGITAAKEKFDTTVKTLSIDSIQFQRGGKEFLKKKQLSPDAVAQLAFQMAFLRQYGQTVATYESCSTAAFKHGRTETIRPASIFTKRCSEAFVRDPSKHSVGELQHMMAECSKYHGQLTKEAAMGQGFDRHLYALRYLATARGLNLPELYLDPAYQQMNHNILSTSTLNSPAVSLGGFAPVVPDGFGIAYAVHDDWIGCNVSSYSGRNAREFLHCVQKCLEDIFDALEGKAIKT

[15] = Half life in mouse by LC-MS/MS analysis; type: ADME; details: in vivo, route po
Plasmodium falciparum = assay: […] activity against Plasmodium falciparum assessed as reduction in microbial growth; type: functional

Serine palmitoyltransferase small subunit B, sequence (Q8NFR3 whole entry, the tested form may be a part): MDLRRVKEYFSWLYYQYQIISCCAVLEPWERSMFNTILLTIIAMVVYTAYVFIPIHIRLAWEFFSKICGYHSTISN

- IC50 [5]: 0.16 µM
Compound: C=CC(=O)N1CCCN(CCCOCc2ccccc2)C1

- Ki [6]: 7.4 µM
Compound: CCC(C)CNCC(=O)N1CCc2sccc2C1COc1cccc(C)c1 (stereo not given)

- IC50 [8]: 5.44 µM
- IC50 [9]: 0.13 µM
Compound: CCCCCCOc1cccc(OCCCCNC(=O)N[C@H](CC(=O)[O-])C[N+](C)(C)C)c1

- Ki [12]: 4.2 µM
Compound: CCCCCCCCCCCCCCCC1(O)C[C@H](CC(=O)[O-])C[N+](C)(C)C1 (single isomer, unassigned)

- Ki [13]: 66 µM
Compound: CC(C)Cc1ccc(C(C)CN2CCN(CCCC[C@H]3CNCCN3CCc3cc(C(F)(F)F)cc(C(F)(F)F)c3)C[C@@H]2Cc2ccc(O)cc2)cc1 (stereo not given in full)

- MIC (Plasmodium falciparum): 0.78 µg/mL
Compound: CCCCCCCCCCCCOC(=O)[C@@H](N)CC(C)C

Continued, molecule first:

Compound: CC(C)=CCC[C@]1(C)C=Cc2c(O)c3c(c(CC=C(C)C)c2O1)O[C@]12C(=C[C@@H]4C[C@H]1C(C)(C)O[C@@]2(C/C=C(/C)C(=O)O)C4=O)C3=O [GAMBOGIC ACID]
- IC50 [1]: 2.18 µM

Compound: C=CC(=O)N1C[C@@H](n2cc(C3CCOCC3)nn2)[C@H](OCc2ccc(C(F)(F)F)cc2)C1
- IC50 [2]: 0.045 µM

Compound: CC(C)(C)NC1CCN(c2cc(NCc3ccc(Cl)cc3)nc3ccccc23)CC1 [EZURPIMTROSTAT]
- IC50 (LN-18): 0.22 µM

Compound: C=C(F)C(=O)N1C[C@@H](Nc2ncccn2)[C@H](OCc2ccc(C(F)(F)F)cc2)C1
- Activity (NCI-H226 [3]): 54%
- Activity (NCI-H226 [4]): 68%
- IC50 [2]: 0.011 µM

Compound: C=CCNCC(=O)N1CCc2sccc2C1COc1ccc(Cl)c(C)c1 (stereo not given)
- IC50 [7]: 0.18 µM

Compound: C=CC(=O)NCc1ccc(OC(=O)c2cccc(Oc3ccccc3)c2)cc1
- IC50 (MCF7): 50 µM
- inhibition (Homo sapiens): 89.5%

Compound: COc1ccc(Cl)cc1S(=O)(=O)N1CC(C(=O)O)Oc2ccc(C(=O)Nc3cccc(F)c3)cc21 (stereo not given)
- IC50 [10]: 1.34 µM
- IC50 [11]: 0.016 µM

Compound: C1CCC(C(CC2CCCCN2)C2CCCCC2)CC1 (stereo not given) [PERHEXILINE]
- IC50 [14]: 77 µM

Compound: CNS(=O)(=O)c1ccc(Nc2ccc(C(F)(F)F)cc2)c(-c2cn(C)cn2)c1
- half-life [15]: 13.2 h
